Test results from patent publication US6784175B2, “Use of substituted 1-amino-5-phenylpentane-3-ol and/or 1-amino-6-phenylhexane-3-ol compounds as medicaments” (Gruenenthal GmbH, priority 2000, dated 2004).
pKi: −log10 of the molar value.

Experiments:
[1] = test system: (+)-MK801 binding site of the ionotropic NMDA receptor; experiment: (3H)-(+)-MK801 receptor bonding test on rat cerebral membrane homogenates; conditions: 1 nmol/l (3H)-(+)-MK801, rat brain membrane homogenate; for Percentage inhibition of (3H)-(+)-MK801 binding at 10 μM: 10 μmol/l compound, triple determinations; for pKi: calculated from IC50 by Cheng-Prusoff equation
Method: Research to determine the NMDA antagonistic effect of each compound in general formula I was carried out on cerebral membrane homogenates (homogenate of rat brain without cerebellum, pons and medulla oblongata taken from male Wistar rats (Charles River, Sulzfeld, Germany)).
For this purpose, after separating the cerebellum, pons and medulla oblongata, freshly prepared rat brains were macerated in 50 mmol/l of tris/HCl (pH 7.7) with a Polytron homogeniser (model PT3000, Kinematika AG, Littau, Switzerland) at 6000 revolutions per minute (rpm) for 1 minute with ice cooling and centrifuged for 15 minutes at 4° C. and 60,000 g. After decanting and discarding the supernatant, again placing in 50 mmol/l of tris/HCl (pH 7.7) and macerating the membrane pellet with a homogeniser at 2000 rpm for 1 minute, it was centrifuged again for 15 minutes at 4° C. and 60,000 g. The supernatant was again discarding and the membrane pellet homogenised (2000 rpm for 1 minute) in 50 mmol/l of tris/HCl (pH 7.7) and frozen in aliquots at −70° C.
For the receptor bonding test, each aliquot was defrosted and then centrifuged for 15 minutes at 4° C. and 60,000 g. After decanting and discarding the supernatant, the membrane pellet was taken up with bonding test buffer and homogenised (2000 rpm for 1 minute). The bonding test buffer was 5 mmol/l tris/HCl (pH 7.7) supplemented with 30 μmol/l of glycine and 100 μmol/l of glutamic acid.
1 nmol/l of (^3H)-(+)-MK801 ((5R, 10S)-(+)-5-methyl-10,11-dihydro-5H-dibenzo(a,d)cycloheptane-5,10-imine was used as a radioactively marked ligand (NET-972, NEN, Cologne Germany). The proportion of unspecific bonding was determined in the presence of 10 μmol/l of non-radioactively marked (+)-MK801 (RBI/Sigma, Deisenhofen, Germany). In further batches, each of the compounds of general formula I were added in series of concentrations and the displacement of the radioactive ligand out of its specific bond to the NMDA receptor determined. All the batches were subjected to triple determinations. The batches were each incubated for 40 minutes at 25° C. in a water bath and then harvested for determination of the radioactive ligand bound to the cerebral membrane homogenate by means of filtration through glass-fibre filters (GF/B) (Whatman GF/B, Hassel, Munich, Germany). The radioactivity retained by the glass-fibre filter discs was measured in a β counter (Packard TRI-CARB Liquid Scintillation Analyser 2000CA, Packard Instrument, Meriden, Conn. 06450, USA) after adding a scintillator (“Ready Protein” scintillator, Beckmann Coulter GmhH, Krefeld, Germany).
The percentage inhibition of the specific bonding of the ligand (^3H)-(+)-MK801 in the presence of 10 μmol/l of each compound of general formula I resulting from the triple batches is used as a measure of the affinity of the compound for the (+)-MK801 binding site of the ionotropic NMDA receptor. From batches with concentration series of these compounds of general formula I, the IC50 values (concentration of substituted compounds with 50% displacement of radioactive ligand out of its specific bond) were calculated in accordance with the law of mass action using non-linear regression. From these IC50 values, the Kj values were calculated in accordance with the Cheng-Prusoff equation (Y. Cheng, W. H. Prusoff, 1973, Biochem. Pharmacol., 22, pp 3099-3108).

SMILES | melting point [°C] | Percentage inhibition of (3H)-(+)-MK801 binding at 10 μM [1] [%] | pKi [1]
CN(C)C(c1ccccc1)C1CCCCC1(O)CCc1ccccc1.Cl (stereo not shown) [Example 1, 2-(dimethylaminophenylmethyl)-1-phenethylcyclohexanol, hydrochloride] | 100 | 56 | 5.42
CN(C)C(c1ccccc1Cl)C1CCCCC1(O)CCc1ccccc1.Cl (stereo not shown) [Example 2, 2-[(2-chlorophenyl)dimethylaminomethyl]-1-phenethylcyclohexanol, hydrochloride] | 110 | 95 | 5.77
CN(C)C(c1ccccc1Br)C1CCCCC1(O)CCc1ccccc1.Cl (stereo not shown) [Example 3, 2-[(2-bromophenyl)dimethylaminomethyl]-1-phenethylcyclohexanol, hydrochloride] | 162 to 165 | 91 | 5.77
COc1cccc(C(C2CCCCC2(O)CCc2ccccc2)N(C)C)c1.Cl (stereo not shown) [Example 4, 2-[dimethylamino-(3-methoxyphenyl)methyl]-1-phenethylcyclohexanol, hydrochloride] | 90 | 51 | 5.21
Cc1ccccc1C(C1CCCCC1(O)CCc1ccccc1)N(C)C.Cl (stereo not shown) [Example 5, 2-(dimethylamino-o-tolylmethyl)-1-phenethylcyclohexanol, hydrochloride] | 187 to 188 | 93 | 5.89
CN(C)C(c1ccccc1)C1CCCCC1(O)CCCc1ccccc1.Cl (stereo not shown) [Example 6, 2-(dimethylaminophenylmethyl)-1-(3-phenylpropyl)cyclohexanol, hydrochloride] | 90 | 74 | 5.59
CN(C)C(c1ccccc1)C1CCCCC1(O)CCc1ccccc1F.Cl (stereo not shown) [Example 7, 2-(dimethylaminophenylmethyl)-1-[2-(2-fluorophenyl)ethyl]cyclohexanol, hydrochloride] | 95 | 91 | 5.96
CN(C)C(c1ccccc1F)C1CCCCC1(O)CCc1ccccc1.Cl (stereo not shown) [Example 8, 2-[dimethylamino-(2-fluorophenyl)methyl]-1-phenethylcyclohexanol, hydrochloride] | 172 to 174 | 91 | 5.80
CN(C)C(c1ccccc1Cl)C1CCCCC1(O)CCc1ccc(F)cc1.Cl (stereo not shown) [Example 9, 2-[(2-chlorophenyl)dimethylaminomethyl]-1-[2-(4-fluorophenyl)ethyl]cyclohexanol, hydrochloride] | 170 | 67 | 5.42
CN(C)C(c1ccccc1Cl)C1CCCCC1(O)CCc1ccccc1F.Cl (stereo not shown) [Example 10, 2-[(2-chlorophenyl)dimethylaminomethyl]-1-[2-(2-fluorophenyl)ethyl]cyclohexanol, hydrochloride] | 162 to 163 | 102 | 6.40
CN(C)C(c1ccccc1Cl)C1CCCCC1(O)CCc1cccc(F)c1.Cl (stereo not shown) [Example 11, 2-[(2-chlorophenyl)dimethylaminomethyl]-1-[2-(3-fluorophenyl)ethyl]cyclohexanol, hydrochloride] | 120 to 126 | 93 | 5.68
CN(C)C(c1ccccc1)C1CCCCC1(O)CCc1ccccc1Cl.Cl (stereo not shown) [Example 12, 1-[2-(2-chlorophenyl)ethyl]-2-(dimethylaminophenylmethyl)cyclohexanol, hydrochloride] | 152 | 85 | 5.82
CN(C)C(c1ccccc1)C1CCCCC1(O)CCc1cccc(Cl)c1.Cl (stereo not shown) [Example 13, 1-[2-(3-chlorophenyl)ethyl]-2-(dimethylaminophenylmethyl)cyclohexanol, hydrochloride] | 95 | 61 | 5.51
Cl.OC1(CCc2ccccc2)CCCCC1C(c1ccccc1)N1CCCCC1 (stereo not shown) [Example 14, 1-phenethyl-2-(phenylpiperidine-1-yl-methyl)cyclohexanol, hydrochloride] | 127 | 88 | 5.55
Cc1ccccc1CCC1(O)CCCCC1C(c1ccccc1)N(C)C.Cl (stereo not shown) [Example 37, 2-(dimethylaminophenylmethyl)-1-(2-o-tolylethyl)cyclohexanol, hydrochloride] |  | 77 | 5.74
Cc1ccccc1CCC1(O)CCCCC1C(c1ccccc1Br)N(C)C.Cl (stereo not shown) [Example 38, 2-[(2-bromophenyl)dimethylaminomethyl]-1-(2-o-tolylethyl)cyclohexanol, hydrochloride] |  | 93 | 5.64
Cc1ccccc1CCC1(O)CCCCC1C(c1ccccc1C)N(C)C.Cl (stereo not shown) [Example 39, 2-(dimethylamino-o-tolylmethyl]-1-(2-o-tolylethyl)cyclohexanol, hydrochloride] |  | 90 | 5.85
CN(C)C(c1ccccc1Br)C1CCCCC1(O)CCCc1ccccc1.Cl (stereo not shown) [Example 40, 2-[(2-bromophenyl)dimethylaminomethyl]-1-(3-phenylpropyl)cyclohexanol, hydrochloride] |  | 82 | 5.72
CN(C)C(c1ccc(F)cc1Cl)C1CCCCC1(O)CCc1ccccc1F.Cl (stereo not shown) [Example 41, 2-[(2-chloro4-fluorophenyl)dimethylaminomethyl]-1-[2-(2-fluorophenyl)ethyl]cyclohexanol, hydrochloride] |  | 94 | 5.92
CN(C)C(c1ccc(F)cc1Cl)C1CCCCC1(O)CCc1ccccc1Cl.Cl (stereo not shown) [Example 42, 2-[(2-chloro4-fluorophenyl)dimethylaminomethyl]-1-[2-(2-chlorophenyl)ethyl]cyclohexanol, hydrochloride] |  | 85 | 5.70
Cc1ccccc1CCC1(O)CCCCC1C(c1ccccc1F)N(C)C.Cl (stereo not shown) [Example 43, 2-[dimethylamino-(2-fluorophenyl)methyl]-1-(2-o-tolylethyl)cyclohexanol, hydrochloride] |  | 92 | 5.85
CN(C)C(c1ccccc1F)C1CCCCC1(O)CCCc1ccccc1.Cl (stereo not shown) [Example 44, 2-[dimethylamino-(2-fluorophenyl)methyl]-1-(3-phenylpropyl)cyclohexanol, hydrochloride] |  | 91 | 5.85
Cc1ccccc1C(C1CCCCC1(O)CCCc1ccccc1)N(C)C.Cl (stereo not shown) [Example 45, 2-(dimethylamino-o-tolylmethyl)1-(3-phenylpropyl)cyclohexanol, hydrochloride] |  | 91 | 5.74
CN(C)C(c1ccccc1C(F)(F)F)C1CCCCC1(O)CCc1ccccc1Cl.Cl (stereo not shown) [Example 46, 1-[2-(2-chlorophenyl)ethyl]-2-[dimethylamino-(2-trifluoromethylphenyl)methyl]cyclohexanol, hydrochloride] |  | 79 | 5.72
CN(C)C(c1ccccc1C(F)(F)F)C1CCCCC1(O)CCc1ccccc1F.Cl (stereo not shown) [Example 47, 2-[dimethylamino-(2-trifluoromethylphenyl)methyl]-1-[2-(2-fluorophenyl)ethyl]cyclohexanol, hydrochloride] |  | 90 | 5.85
